Assay type in all cases: cell-based
Assay [1] has as its system rhinovirus type 2. In words: in vitro antiviral spectrum. The note with it: Enterovirus, read-out: Minimum inhibitory concentration.
The test system of assay [2] is rhinovirus type 14. In words: in vitro antiviral spectrum. To be noted: Enterovirus, read-out: Minimum inhibitory concentration.
Assay [3] deals with rhinovirus type 21. In words: in vitro antiviral spectrum. The note with it: Enterovirus, read-out: Minimum inhibitory concentration.
The test system of assay [4] is rhinovirus type 47. In words: in vitro antiviral spectrum. The note with it: Enterovirus, read-out: Minimum inhibitory concentration.
Assay [5] relates to rhinovirus type 32. The assay is described as follows: in vitro antiviral spectrum. The note with it: Enterovirus, read-out: Minimum inhibitory concentration.
The test system of assay [6] is rhinovirus type 13. The assay is described as follows: in vitro antiviral spectrum. To be noted: Enterovirus, read-out: Minimum inhibitory concentration.
The test system of assay [7] is rhinovirus type 53. In words: in vitro antiviral spectrum. The note with it: Enterovirus, read-out: Minimum inhibitory concentration.
Assay [8] has as its system rhinovirus type 17. The assay is described as follows: in vitro antiviral spectrum. The note with it: Enterovirus, read-out: Minimum inhibitory concentration.
In assay [9] the test system is rhinovirus type 4. The assay is described as follows: in vitro antiviral spectrum. To be noted: Enterovirus, read-out: Minimum inhibitory concentration.
Assay [10] has as its system rhinovirus type 44. The assay is described as follows: in vitro antiviral spectrum. To be noted: Enterovirus, read-out: Minimum inhibitory concentration.
Assay [11] deals with rhinovirus type 34. The assay is described as follows: in vitro antiviral spectrum. The note with it: Enterovirus, read-out: Minimum inhibitory concentration.
Assay [12] relates to rhinovirus type 30. The assay is described as follows: in vitro antiviral spectrum. To be noted: Enterovirus, read-out: Minimum inhibitory concentration.
Assay [13] deals with rhinovirus type 26. In words: in vitro antiviral spectrum. To be noted: Enterovirus, read-out: Minimum inhibitory concentration.
Assay [14] concerns rhinovirus type 50. The assay is described as follows: in vitro antiviral spectrum. To be noted: Enterovirus, read-out: Minimum inhibitory concentration.
Assay [15] concerns rhinovirus type 1A. In words: in vitro antiviral spectrum. To be noted: Enterovirus, read-out: Minimum inhibitory concentration.
Assay [16] relates to rhinovirus type 9. In words: in vitro antiviral spectrum. To be noted: Enterovirus, read-out: Minimum inhibitory concentration.
The test system of assay [17] is rhinovirus type 16. In words: in vitro antiviral spectrum. To be noted: Enterovirus, read-out: Minimum inhibitory concentration.
Assay [18] deals with rhinovirus type 55. In words: in vitro antiviral spectrum. To be noted: Enterovirus, read-out: Minimum inhibitory concentration.
For assay [19], the system named is rhinovirus type 39. In words: in vitro antiviral spectrum. The note with it: Enterovirus, read-out: Minimum inhibitory concentration.
Assay [20] has as its system rhinovirus type 3. The assay is described as follows: in vitro antiviral spectrum. To be noted: Enterovirus, read-out: Minimum inhibitory concentration.
Assay [21] concerns rhinovirus type 36. In words: in vitro antiviral spectrum. The note with it: Enterovirus, read-out: Minimum inhibitory concentration.
Assay [22] has as its system rhinovirus HGP. The assay is described as follows: Inhibition of viral cytopathogenic effect in HeLa cells (rhinovirus HGP). To be noted: Enterovirus, HeLa, 48 h, read-out: IC50 rhinovirus HGP. For orientation: Damage to the host cells serves as the signal in cytopathic effect assays.
Assay [23] concerns Coxsackie virus B1. In words: Inhibition of viral cytopathogenic effect in HeLa cells (Coxsackie virus B1).

Values after ≈ are worked out from the molar mass of the structure shown.

A word on the IC50: it is the midpoint of a concentration-inhibition curve. As to `COc1cc(O)c2c(=O)c(OC)c(-c3ccc(O)cc3)oc2c1` [4',5-dihydroxy-3,7-dimethoxyflavone], the MIC is 0.1 mg/L (≈ 0.318 µM) in [1]; 0.3 mg/L (≈ 0.955 µM) in assay [2]; 0.3 mg/L (≈ 0.955 µM) in [3]; 0.3 mg/L (≈ 0.955 µM) in assay [4]; 0.3 mg/L (≈ 0.955 µM) in assay [5]; 0.3 to 1 mg/L (≈ 0.955 to 3.18 µM) in assay [6]. The MIC in [7] was 0.3 mg/L (≈ 0.955 µM); in [8], 0.1 mg/L (≈ 0.318 µM); in assay [9] it was 0.3 to 1 mg/L (≈ 0.955 to 3.18 µM); in assay [10], 0.5 mg/L (≈ 1.59 µM); in [11], 0.3 mg/L (≈ 0.955 µM); in [12] it was 0.1 mg/L (≈ 0.318 µM). Besides, the MIC was 0.3 mg/L (≈ 0.955 µM) in assay [13]; 0.3 mg/L (≈ 0.955 µM) in assay [14]; 0.03 mg/L (≈ 0.0955 µM) in assay [15]; 0.3 mg/L (≈ 0.955 µM) in assay [16]; 0.3 to 1 mg/L (≈ 0.955 to 3.18 µM) in assay [17]; 0.1 to 0.3 mg/L (≈ 0.318 to 0.955 µM) in assay [18]. The MIC is 0.3 mg/L (≈ 0.955 µM) in assay [19], 0.3 mg/L (≈ 0.955 µM) in assay [20], 0.3 mg/L (≈ 0.955 µM) in assay [21] and 0.1 mg/L (≈ 0.318 µM) in assay [23] (read-out: Minimum inhibitory concentration). Moreover, the concentration for half-maximal inhibition (IC50) came out at 0.1 mg/L (≈ 0.318 µM) in [22] and 0.1 mg/L (≈ 0.318 µM) in assay [23] (HeLa, 24 h, read-out: IC50 Coxsackie virus B1).
